Reference: patent US20250099455A1, “TREATMENT FOR CONGESTIVE HEART FAILURE” (FibroGen, Inc., priority 2022, published 2025)
Entries after “also recorded” stand apart in the source; their conditions may differ.

Legend:
PHD2 = PHD2 (Homo sapiens (Human), UniProt Q9GZT9); test: HIF-PH assay (14CO2 capture), PHD2; assay type: biochemical
Source text: The selectivity profile for the compound of Formula I can be determined using, for example, any assay familiar and commonly accessible to those skilled in the art, e.g., the following HIF-PH assay. Ketoglutaric acid α-[1-^14C]-sodium salt, alpha-ketoglutaric acid sodium salt, and HPLC purified peptide may be obtained from commercial sources, e.g., Perkin-Elmer (Wellesley MA), Sigma-Aldrich, and SynPep Corp. (Dublin CA), respectively. Peptides for use in the assay may be fragments of HIFα as described above or as disclosed in International Publication WO 2005/118836, incorporated by reference herein. HIF-PH, e.g., PHD1 (EGLN2) or PHD2 (EGLN1), can be expressed in, e.g., insect Hi5 cells, and partially purified, e.g., through a SP ion exchange chromatography column. Enzyme activity is determined by capturing ^14CO2 using an assay described by Kivirikko and Myllyla (1982, Methods Enzymol. 82:245-304). […] The peptide-dependent percent turnover is calculated by subtracting percent turnover in the absence of peptide from percent turnover in the presence of substrate peptide. Percent inhibition and IC50 are calculated using peptide-dependent percent turnover at given inhibitor concentrations. […] IC50 of test compound for PHD1 and for PHD2 and/or PHD3 can be readily determined using the above method, and used to assess the selectivity of the compound for inhibition of PHD1.

[1] = tested on: permanent myocardial ischemia induced HF; test: Permanent myocardial ischemia induced HF; assay type: in vivo, rat; settings: 6, 20 mg/kg daily, 4 weeks; at both doses
[2] = tested on: acute myocardial ischemia; test: Acute cardioprotection: infarct size post-acute myocardial ischemia; assay type: in vivo
[3] = tested on: myocardial ischemia-induced heart failure (HFrEF); test: Rat model of ischemic HFrEF, Formula I and empagliflozin alone and in combination; assay type: in vivo
Protocol: • Male Sprague Dawley rats • Ligation of left coronary artery for 30 minutes followed by reperfusion • Post-ligation recovery for 28 days • Cardiac function 28 days after ischemia-reperfusion using a Millar pressure-volume catheter inserted in the left ventricle via the carotid artery • Record pressure-volume loops over several cardiac cycles and derived cardiac function parameters A) Rat Model of Ischemic Heart Failure with Reduced Ejection Fraction (HFrEF)

Sequence of PHD2 (Q9GZT9 whole entry, species assumed, the tested form may be a part): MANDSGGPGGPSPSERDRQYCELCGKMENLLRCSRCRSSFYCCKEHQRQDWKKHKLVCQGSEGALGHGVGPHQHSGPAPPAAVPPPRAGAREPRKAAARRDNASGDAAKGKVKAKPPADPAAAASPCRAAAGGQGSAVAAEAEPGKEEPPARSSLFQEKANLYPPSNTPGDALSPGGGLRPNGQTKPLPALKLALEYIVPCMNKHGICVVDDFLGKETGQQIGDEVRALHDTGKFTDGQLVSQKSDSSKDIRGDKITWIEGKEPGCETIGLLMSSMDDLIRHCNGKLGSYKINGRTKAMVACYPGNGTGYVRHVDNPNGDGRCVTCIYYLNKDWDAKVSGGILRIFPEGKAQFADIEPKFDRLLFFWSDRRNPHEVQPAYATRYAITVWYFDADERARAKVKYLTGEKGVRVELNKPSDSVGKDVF

IC50 (PHD2; Table 1): 20.4 µM
IC50 (PHD2; additional experiment, Table 1A): 16.9 µM
Structure (SMILES): CC(C)(CC(=O)O)NC(=O)c1nc(C#N)c2cc(Oc3ccccc3)ccc2c1O [Formula I, 3-[(1-cyano-4-hydroxy-7-phenoxy-isoquinoline-3-carbonyl)-amino]-3-methyl-butyric acid]
cardiac hypertrophy [1]: Non-significant reduction in cardiac
collagen deposition [1]: Non-significant reduction in cardiac
infarct size [2]: reduced; also recorded: dose-dependent reducing affect
improvement in ejection fraction [3]: ~30%
improvement in end systolic volume [3]: ~30%
